Literature values as cited in patent publication US10610592B2, “Treatment of multiple sclerosis” (priority 2014, dated 2020).

How the values were obtained:
[1] = very prolonged elimination
[2] = patients treated with alemtuzumab

elimination time [1] | Molecule | patients who develop thyroid autoimmune diseases, and hematologic and renal complications [2]
up to 2 years | C/C(O)=C(\C#N)C(=O)Nc1ccc(C(F)(F)F)cc1 [Teriflunomide] | 
 | Alemtuzumab: monoclonal antibody that binds to proteins (CD-52) on mature lymphocytes | Approximately 40%
